Laboratory results from patent US6417160B1, “Methods for increasing schwann cell survival” (priority 1997, dated 2002).

Key:
PD2 Schwann cells = assay: Mitochondrial membrane potential (ΔΨM) by CMTMR confocal imaging; assay type: cell-based, rat; conditions: 40 mM glucose, DMD 10^−9 M; for distribution frequencies of ΔΨM (CMTMR intensity): 6 h, CsA 10^−7, ATR 1 mM; for CMTMR fluorescent intensity (confocal images): 6 hr, CsA 10^−7 M, ATR 1 mM
From the text: As has been previously reported in a number of models of apoptosis, apoptotic cell death is often preceded by a fall in mitochondrial membrane potential (ΔΨM). […] This dye is preferentially taken up by actively respiring mitochondria where it binds to protein thiol groups within the mitochondrial matrix and is retained following aldehyde fixation. The CMTMR fluorescence intensity therefore represents the highest level of negativity difference (i.e., the greatest ΔΨM) in the mitochondria during the period of dye exposure prior to fixation.
A Leica true confocal scanning (TCS) microscope was used to image the cells. A pinhole aperture of 20 is maintained with constant laser and photo-detector power settings and an excitation filter wavelength of 488 nm and a band-pass emission filter of 600/30 nm. Each image was scanned using an oil-immersion, 100×, 1.4 N.A. objective at 512 by 512 by 8 bits per pixel resolution, background offset of −1 and line averaged 32 times. The confocal images were saved as grey-scale tagged image file format (TIFF) files for analysis and recolourization. The Metamorph™ (Universal Imaging, Ltd.) image capture and analysis system for Windows was used to measure the intensity of CMTMR fluorescence in individual mitochondria. In each mitochondrion, no fewer than two regions were defined by a box measuring 9 pixels square each. The average intensity per pixel within each defined region is measured and automatically logged to a Microsoft Excel spreadsheet for analysis.
At the end of the indicated time point, Schwann cells so treated were incubated with CMTMR to estimate ΔΨM, fixed with 4% paraformaldehyde, and processed for the immunocytochemical co-localization of hexokinase (Type 1) to mitochondria. The fixed coverslips were blocked for 1 hr with 10% normal donkey serum to minimize non-specific binding, and incubated with a mouse monoclonal antibody raised against hexokinase (Type 1; Chemicon) at a dilution of 1:500 overnight at 4° C. Coverslips were washed in PBS and incubated with a Cy5 conjugated donkey anti-mouse (Jackson Immuno Research) at a dilution of 1:250 for 1 hr at room temperature. Coverslips were then washed with PBS and mounted with Aquamount (BDH).

[1] = system: PD2 (non-proliferating) and PD15 (proliferating) Schwann cells; assay: Schwann cell survival in high glucose media (counts of intact nuclei); assay type: cell-based, rat; conditions: IGF-1 1 ng/ml, NAC 10^−7 M, DMD 10^−9 M; for Schwann cell survival: 24 hr of high glucose exposure (40 mM); for number of cells (intact nuclei relative to 5.5 mM glucose control): 40 mM glucose, 2 hr
Schwann cells = assay: NO production by Griess reaction (secreted nitrite in culture medium); assay type: cell-based, rat; conditions: for NO2 production: Schwann cells exposed to 40 mM glucose, 24 hr, DMD 10^−9 M, L-NIL 10^−4 M
Method: To determine the role of NO signaling in high glucose induced Schwann cell apoptosis, PD2 and PD15 Schwann cells were cultured, as described, in the presence of 5.5 or 40 mM glucose for 24 hr. Cells exposed to 40 mM glucose were also treated with DMD (10^−9 M), the NOS inhibitor L-NIL (10^−4 M) or an inhibitor of the constitutive, Ca^++-dependent isoform of NOS (cNOS), S-methyl-thiocitruline (SMTC, 10^−4 M). […] PD2 Schwann cells were also treated with increasing amounts of TNF-α […] plus IFN-γ (50, 100, 250, and 500U) for 24 hr to establish a dose-response threshold for the assay.
The Griess reaction, which measures secreted nitrite (NO2) in the culture medium, was used to investigate NO production by Schwann cells.

[2] = Cell rescue with P450 inhibitor Proadifen (animal and cell-culture studies); conditions: P450 inhibitor Proadifen co-administered
PC12 cells = conditions: cited from earlier work
[3] = system: cultured cerebellar granule cells; conditions: cited from earlier work
[4] = system: neuronal and non-neuronal cells; conditions: several systems; cited from earlier work
[5] = Hepatic metabolism after oral administration
[6] = Stability of deprenyl versus pH of the medium; conditions: pH about 3-5 versus pH about 7

## C=C1[C@@H]2CC[C@H]3[C@]4(C)C[C@H](O[C@@H]5O[C@H](CO)[C@@H](OS(=O)(=O)O)[C@H](OS(=O)(=O)O)[C@H]5OC(=O)CC(C)C)C[C@@H](C(=O)O)[C@H]4CC[C@]3(C2)[C@H]1O [ATR, atractyloside]
PD2 Schwann cells
  distribution frequencies of ΔΨM (CMTMR intensity): pronounced shift to the left
  CMTMR fluorescent intensity (confocal images): decreased CMTMR brightness

## IGF-1: insulin-dependant growth factor (IGF); anti-apoptotic agent added to high glucose media
[1]
  Schwann cell survival: significantly improve Schwann cell survival
[1]; non-proliferating cells
  number of cells (intact nuclei relative to 5.5 mM glucose control): significant increase
[1]; proliferating cells
  number of cells (intact nuclei relative to 5.5 mM glucose control): significant increase

## cyclosporin A [CsA]
PD2 Schwann cells
  CMTMR fluorescent intensity (confocal images): enhanced brightness

## C#CCNC(C)Cc1ccccc1 (single isomer, unassigned; (-)) [DMD, (−)-desmethyldeprenyl]
[1]
  Schwann cell survival: significantly improve Schwann cell survival
[1]; non-proliferating cells
  number of cells (intact nuclei relative to 5.5 mM glucose control): significant increase
[1]; proliferating cells
  number of cells (intact nuclei relative to 5.5 mM glucose control): significant increase
PD2 Schwann cells
  distribution frequencies of ΔΨM (CMTMR intensity): restored ΔΨM distributions comparable with the base media
  CMTMR fluorescent intensity (confocal images): comparable levels of CMTMR fluorescent intensity compared with cells in base media
Schwann cells
  NO2 production: slight decrease
[2]
  cell-rescuing activity on administration of Proadifen: does not block the cell-rescuing activity

## C#CCN(C)[C@H](C)Cc1ccccc1 [(−)-deprenyl, R-(−)-N,α-Dimethyl-N-2-propynyl phenethylamine]
PC12 cells
  trophic withdrawal induced drop in ΔΨM: prevent
[3]
  AraC induced drop in ΔΨM: prevent
[4]
  apoptotic death of neuronal and non-neuronal cells: reduce the apoptotic death
[5]
  metabolites formed by the liver: (−)-desmethyldeprenyl, as well as (−)-methamphetamine and (−)-amphetamine
[6]
  stability: more stable at a pH in the range of about 3-5 than at a pH of about 7
[2]
  cell-rescuing activity on administration of Proadifen: reduces the ability of (−)-deprenyl to prevent cell death

## CC(=N)NCCCC[C@H](N)C(=O)O [L-NIL]
Schwann cells; L-NIL added
  stimulation of NO2 release by TNF-α/IFN-γ: prevented
Schwann cells
  NO2 production: slight decrease

## CC(=O)N[C@@H](CS)C(=O)O [NAC, N-acetyl-L-cysteine]
[1]
  Schwann cell survival: significantly improve Schwann cell survival
[1]; non-proliferating cells
  number of cells (intact nuclei relative to 5.5 mM glucose control): significant increase
[1]; proliferating cells
  number of cells (intact nuclei relative to 5.5 mM glucose control): significant increase
